Measurements: patent US20250066739A1, “Compositions and Methods for Improving Squamous Epithelial Organoids and Their Production” (The Trustees of Columbia University in the City of New York, priority 2022, published 2025)

Key:
[1] = system: EPC1 and EPC2 hTERT-immortalized normal esophageal keratinocytes; assay: Organoid formation by EPC1/EPC2 esophageal 3D organoids; assay type: cell-based
Protocol: (§1) In general, 2×10^4 cells were seeded per well to initiate PDO in 24-well plates, which were pre-warmed to 37° C. 1.4×10^5 cells were transferred into a 1.7-mL tube and centrifuged at 500×g (2,300 rpm on Eppendorf 5424R) for 3 min at room temperature to pellet cells. Cells were resuspended in 350 μL ice-cold MATRIGEL® and 50 μL of the suspension was aliquoted into each well of 24-well plate. The 24-well plate was placed in a CO2 incubator at 37° C. for 30 min to allow the MATRIGEL® to solidify.
(§2) 500 μL of a tumor-type specific organoid medium (see Example 11) was added to each well, and the organoid media was changed every 2 to 3 days. Contamination and organoid growth was monitored under a phase-contrast microscope, and organoids were allowed to grow for 10 to 14 days and then passaged or harvested. If spherical structures were observed but grew slowly, the culturing period was extended for another 7 to 14 days.
To evaluate organoid growth, 3D organoid structures were monitored during culturing, and their size was documented by a conventional phase-contrast inverted microscope or high-throughput cell imaging instruments (e.g., Celigo Image Cytometer, Nexcelom Bioscience) with the capacity of automated multi-well rapid imaging and quantitative analysis of organoid size, number, and structure. Organoids were grown in 24-well or 96-well plates as described above, and phase-contrast images were manually acquired. Using ImageJ software, the diameter of at least 5 organoids per well was measured. The Celigo Image Cytometer was also used to acquire phase-contrast images and calculate mean organoid area for all organoids imaged. Growth curves were subsequently calculated by repeating measurements every other day and plotting organoid diameter or area at each time point.
In order to improve the success rate of creating and subculturing organoids through increasing numbers of passages, alterations to existing media were explored and compared to each other and the HC media described in Driehuis et al., Cancer Discov, 2019; 9:852-71. […]

neoplastic PDOs = assay: Growth and formation of neoplastic PDOs; assay type: cell-based, human; details: FIG. 2
Protocol: as §1, §2
To evaluate organoid growth, 3D organoid structures were monitored during culturing, and their size was documented by a conventional phase-contrast inverted microscope or high-throughput cell imaging instruments (e.g., Celigo Image Cytometer, Nexcelom Bioscience) with the capacity of automated multi-well rapid imaging and quantitative analysis of organoid size, number, and structure. […] Using ImageJ software, the diameter of at least 5 organoids per well was measured. […]

Compound | EPC1/EPC2 organoid growth in HOME50 devoid of A83-01 ([1]; medium lacking A83-01 (ΔA), FIG. 5) | organoid formation and structure ([1]; effect of EGF concentration, esophageal 3D organoids, FIG. 1) | squamous-cell differentiation gradient ([1]; low EGF concentration, FIG. 1) | growth and formation of neoplastic PDOs (neoplastic PDOs)
Cc1cccc(-c2nn(C(=S)Nc3ccccc3)cc2-c2ccnc3ccccc23)n1 [A83-01, reference compound] | did not grow |  |  | 
EGF: Recombinant human epidermal growth factor (Peprotech, cat. No. AF-100-15) (NSDSECPLSHDGYCLHDGVCMYIEALDKYACNCVVGYIGERCQYRDLKWWELR; Epidermal growth factor; UniProt P01133 971-1023, looked up) |  | influences organoid formation and structure | more closely recapitulates a normal squamous-cell differentiation gradient | may stimulate growth, if not formation
